Data on 1 molecule can be found in US20160235778A1, “COMPOSITIONS CONTAINING PUFA, URIDINE AND CHOLINE AND METHODS OF USE THEREOF” (MASSACHUSETTS INSTITUTE OF TECHNOLOGY, priority 2014, published 2016).

One test concerns brain phospholipids. Put plainly: Brain phospholipid levels in pups of treated pregnant and nursing mothers. In kind it is in vivo. Conditions: rat pups. As for the experimental part:
(§1) In another study, pregnant rats were allowed to consume ad libitum, for 10 days before parturition and 20 days while nursing, either a choline-containing control diet or this diet supplemented with uridine as UMP; half of each group also received DHA or its diluent daily, by gavage. Pups were then sacrificed and brain slices were examined to determine numbers of hippocampal dendritic spines.
Pregnant and nursing rats were administered DHA and/or uridine as described in Example 9. At 20 days post-birth, rats were sacrificed and brain samples were obtained and assayed for phospholipids. Administration of DHA alone increased brain PC, PI, PE, and sphingomyelin (SM) per cell (DNA) by 36, 166, 38, and 78%, respectively. UMP markedly amplified the effects of DHA to 66, 210, 68, and 99% of control, respectively (Table 8). These increases were greater than those observed in adult animals. Similar results were obtained when normalizing to protein (Table 9). Thus, administration of DHA and/or uridine to pregnant and nursing mothers is able to increase phospholipid levels in the offspring.

In test [1] the test system is hippocampal dendritic spines. Put plainly: Hippocampal dendritic spine numbers in pups of treated pregnant and nursing mothers. It is filed as in vivo. Conditions: rat pups, mothers treated 10 days before parturition and 20 days while nursing.
From the text: as §1

The subject of a further test is Rat hippocampal cells. Put plainly: 14C-choline incorporation into PC in cultured hippocampal neurons. It is filed as cell-based. Conditions: DHA+choline, 14C-choline 2 h, FIG. 10. Here is the method: Rat hippocampal cells were cultured for 3 weeks in Neutrobasal plus B27 medium, to reach full maturation. On the day of the experiment, cells were incubated with DMEM+choline, with or without added DHA. ^14C-choline was added, cells were incubated for an additional 2 h, and newly-formed ^14C-labeled PC was extracted and measured as described in Example 1.

For another test, the system named is PC-12 cells. Put plainly: 14C-choline incorporation into phospholipids in PC-12 cells. In kind it is cell-based. Here is the method: PC-12 cells were maintained in Dulbecco's modified Eagle's medium (DMEM)+10% fetal bovine serum (FBS). For experiments, cells were grown in quintuplicate collagen-coated 35 millimeter (mm) dishes. Cells were incubated for 18 hours (hr) in serum-free DMEM containing 28 μM choline+/−5 micromolar (μM) of DHA, oleic acid, or palmitic acid. Cells were then labeled for 2.5 hr with 0.5 microcurie (μCi)/ml ^14C-choline in serum-free DMEM containing 10-micromolar (μM) choline.
Cells were homogenized in 100 volumes of ice-cold deionized water using a tissue degrader (Polytron PT 10-35, Kinematica AG, Switzerland); 1 ml of aliquots were then mixed with 3 ml of chloroform+methanol mixture (2:1 v/v) and vortexed vigorously for 30 seconds. After cooling for 1 h on ice, the mixture was mixed sequentially with 3 ml of chloroform+methanol mixture (2:1 v/v) and 1 ml of ice-cold deionized water. […] Total phosphorus was determined by comparison with standard curves by using KH2PO4 run with each assay. […] Absorbance was measured spectrophotometrically at 820 nm. Phospholipid mass was determined by multiplying the phosphorus content by 25.
To further characterize the stimulation of phospholipid synthesis by omega-3 fatty acids, PC-12 cells were pre-treated with different doses of DHA and exposed to labeled choline as described in Example 1, then incorporation of ^14C-label into phospholipids was measured. […]

Setting [2] is: postnatal day 20, normalized to DNA.
Where [3] appears, read: postnatal day 20, normalized to protein.

Take `CCC=CCC=CCC=CCC=CCC=CCC=CCCC(=O)O` [DHA, 4,7,10,13,16,19-docosahexaenoic acid]: in the test on brain phospholipids (setting [2]), the “PC, percent increase over control” value is 36%; the “PE, percent increase over control” value was found to be 38%; the “PI, percent increase over control” value was 166%; the “SM, percent increase over control” value turned out to be 78%. Moreover, the “Total Phospholipids, percent increase over control” value in the test with brain phospholipids (setting [2]) is reported as 30%. Besides, in the test on brain phospholipids (setting [3]), the “PC, percent increase over control” value turned out to be 23%; the “PE, percent increase over control” value stood at 24%; the “PI, percent increase over control” value was determined as 141%; the “SM, percent increase over control” value was determined as 59%. Besides, the “Total Phospholipids, percent increase over control” value in the test on brain phospholipids (setting [3]) is recorded as 16%. Also, in test [1], the “Increase over control (%)” value is 32% and the Number of spines amounted to 70. Also, the “increase in synthesis of phospholipids relative to choline alone (control)” value in the test with Rat hippocampal cells is on record as “more than 2 fold”. Besides, the “Phosphatidylcholine (PC) synthesis (incorporation of 14C label into PC)” value in the test with PC-12 cells (18 h pre-incubation with 5 μM fatty acid, FIG. 1) is recorded as “significantly increased”. In addition, the “synthesis of phospholipids (incorporation of 14C-label)” value in the test with PC-12 cells (different doses of DHA, dose-dependent, FIG. 2) was “increased synthesis of phospholipids”.
